# Measured values taken from patent publication US8778966B2, “Quinolinone derivatives as PARP and tank inhibitors” (Janssen Pharmaceutica, NV, priority 2007, dated 2014).
# Read-outs that look alike come from different tables or passages of the source.
# Legend:
# Format in all cases: cell-based, human
# HCT116 cells [1] = test: Mitotic arrest assay on HCT116 cells (phospho-histone H3 Ser10); details: lowest active dose; for minimal effective concentration: Homo sapiens, HCT-116, HCT116 cells, read-out: Mitotic arrest HCT116 LAD (converted)
# Outline: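 Seeded overnight, then compound-treated 6 h at 37 °C (≤0.1% DMSO); fixed, stained with Alexa Fluor 488 anti-phospho-H3 (Ser10) plus Hoechst 33342, imaged on InCell Analyzer 1000. Blank-subtracted signal divided by SD (sigma), triplicate; value is lowest dose giving sigma >5 (LAD).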
# HCT116 cells [2] = test: Antiproliferative activity, Alamar Blue assay, HCT116 cells; parameters: key to HCT116 antiproliferative activity pIC50: pIC50 = -log IC50 (IC50: conc. reducing growth to 50% of control); details: for IC50: Homo sapiens, HCT-116, HCT116 cells, read-out: HCT116 antiproliferative activity pIC50 (converted)
# Outline: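 HCT116 cells seeded, adhered 24 h, then exposed to compound for 4 days; Alamar Blue (resazurin) added for 4 h at 37 °C, fluorescence read at 540/590 nm. Viability as % of untreated control, triplicate wells; IC50 by probit analysis, reported as pIC50.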
# PC-3 cells = test: Antiproliferative activity, Alamar Blue assay, PC-3 cells; details: for IC50: Homo sapiens, PC-3, PC3 cells, read-out: PC3 antiproliferative activity pIC50 (converted); for PC3 antiproliferative activity pIC50: PC3 cells
# Outline: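 PC-3 cells seeded at 4.5×10^3 cells/ml, left to adhere 24 hr, then exposed to compound for 4 days. Resazurin (Alamar Blue) added for a further 24 hrs at 37° C; fluorescence read at 540/590 nm. Viability as % of untreated control, mean of 3 wells; IC50 by probit analysis, reported as pIC50.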
IC50 (HCT116 cells [2]) [nM],IC50 (PC-3 cells) [nM],PC3 antiproliferative activity pIC50 (PC-3 cells),HCT116 antiproliferative activity pIC50 (HCT116 cells [2]; HCT116 cells),IC50 (HCT116 cells [2]; Alamar Blue) [nM],IC50 (PC-3 cells; Alamar Blue) [nM],Structure (SMILES),minimal effective concentration (HCT116 cells [1]) [µM],"Mitotic arrest HCT116 LAD (HCT116 cells [1]; HCT116 cells, the values are: pLAD (−log M lowest active dose))"
398,398,,,,,CCc1cc2ccc(C(C)(C#N)Cc3cc(C)ccc3C)cc2[nH]c1=O (stereo not drawn) [Compound 78],0.1,
794,794,,,,,CCc1cc2ccc(C(C)(C#N)Cc3ccc(F)c(C)c3)cc2[nH]c1=O (stereo not drawn) [Compound 79],0.316,
501,398,,,,,CCc1cc2ccc(C(C)(C#N)Cc3cc(Cl)ccc3OC)cc2[nH]c1=O (stereo not drawn) [Compound 80],0.1,
316,501,,,,,CCc1cc2ccc(C(C)(C#N)Cc3cccc(Br)c3C)cc2[nH]c1=O (stereo not drawn) [Compound 81],0.1,
316,631,,,,,CCc1cc2ccc(C(C)(C#N)Cc3ccc(Cl)c(C(F)(F)F)c3)cc2[nH]c1=O (stereo not drawn) [Compound 82],0.1,
1000,2000,,,,,CCc1cc2ccc(C(C)(C#N)Cc3ccc(C)c(F)c3F)cc2[nH]c1=O (stereo not drawn) [Compound 83],0.316,
2000,3980,,,,,CCc1cc2ccc(C(C)(C#N)Cc3c(C)cccc3C)cc2[nH]c1=O (stereo not drawn) [Compound 84],0.316,
316,1000,,,,,CCc1cc2ccc(C(C)(C#N)Cc3nc4ccccc4o3)cc2[nH]c1=O (stereo not drawn) [Compound 85],0.316,
5010,6310,,,,,CCc1cc2ccc(C(C)(C#N)Cc3csc(C)n3)cc2[nH]c1=O (stereo not drawn) [Compound 86],1,
1000,1000,,,,,CCc1cc2ccc(C(C)(C#N)Cc3ccc4nccnc4c3)cc2[nH]c1=O (stereo not drawn) [Compound 87],0.316,
> 10000,10000,,,,,CCc1cc2ccc(C(C)(C#N)Cc3c(C)c(C)cc(C)c3C)cc2[nH]c1=O (stereo not drawn) [Compound 88],1,
> 10000,> 10000,,,,,CCc1cc2ccc(C(C)(C#N)Cc3c(C)c(C)c(C)c(C)c3C)cc2[nH]c1=O (stereo not drawn) [Compound 89],3.16,
1000,,5.8,,,,CCc1cc2ccc(C(C)(C#N)Cc3cc(Cl)cc4c3OCOC4)cc2[nH]c1=O (stereo not drawn) [Compound 90],0.316,
,,5.4,5.8,,,CCc1cc2ccc(C(C)(C#N)Cc3cc(Cl)cc4c3OCOC4)cc2[nH]c1=O (stereo not drawn) [Compound 92],,6.5
> 10000,10000,,,,,CCc1cc2ccc(C(C)(C#N)Cc3nncn3C)cc2[nH]c1=O (stereo not drawn) [Compound 93],1,
6310,> 10000,,,,,CCc1cc2ccc(C(C)(C#N)Cc3cccc4nnn(C)c34)cc2[nH]c1=O (stereo not drawn) [Compound 94],3.16,

IC50 (HCT116 cells [2]) [nM],IC50 (PC-3 cells) [nM],PC3 antiproliferative activity pIC50 (PC-3 cells),HCT116 antiproliferative activity pIC50 (HCT116 cells [2]; HCT116 cells),IC50 (HCT116 cells [2]; Alamar Blue) [nM],IC50 (PC-3 cells; Alamar Blue) [nM],Structure (SMILES),minimal effective concentration (HCT116 cells [1]) [µM],"Mitotic arrest HCT116 LAD (HCT116 cells [1]; HCT116 cells, the values are: pLAD (−log M lowest active dose))"
251,631,,,,,CCc1cc2ccc(C(C)(C#N)Cc3nn(C)c4ccccc34)cc2[nH]c1=O (stereo not drawn) [Compound 95],0.1,
5010,> 10000,,,,,CCc1cc2ccc(C(C)(C#N)Cc3cn4ccccc4n3)cc2[nH]c1=O (stereo not drawn) [Compound 96],1,
2510,> 10000,,,,,CCc1cc2ccc(C(C)(C#N)Cc3cccnc3)cc2[nH]c1=O (stereo not drawn) [Compound 97],3.16,
> 10000,> 10000,,,,,CCc1cc2ccc(C(C)(C#N)Cc3ccncc3)cc2[nH]c1=O (stereo not drawn) [Compound 98],> 10,
79.4,398,,,,,CCc1cc2ccc(C(C)(C#N)Cc3cc(Cl)ccc3Cl)cc2[nH]c1=O (stereo not drawn) [Compound 99],0.1,
2510,3160,,,,,CCc1cc2ccc(C(C)(C#N)Cc3ccccc3C#N)cc2[nH]c1=O (stereo not drawn) [Compound 101],0.316,
2000,1000,,,,,CCc1cc2ccc(C(C)(C#N)Cc3ccccc3OC(F)(F)F)cc2[nH]c1=O (stereo not drawn) [Compound 102],0.316,
1000,631,,,,,CCc1cc2ccc(C(C)(C#N)Cc3ccccc3C(F)(F)F)cc2[nH]c1=O (stereo not drawn) [Compound 103],0.316,
,,,,5010,10000,Cc1cc2ccc(C(C)(C#N)Cc3cc4ccccc4[nH]3)cc2[nH]c1=O (stereo not drawn) [Compound 234],3,
,,,,200,501,CCc1cc2ccc(C(C)(C#N)Cc3ccc(F)c(C#N)c3)cc2[nH]c1=O (stereo not drawn) [Compound 267],0.1,
,,,,1580,2510,CCc1cc2ccc(C(C)(C#N)CCOc3ccccc3C#N)cc2[nH]c1=O (stereo not drawn) [Compound 276],1,
,,,,501,501,CCc1cc2ccc(C(C)(C#N)CCOc3cc(Cl)c(Cl)cc3Cl)cc2[nH]c1=O (stereo not drawn) [Compound 277],0.3,
,,,,1580,2000,CCc1cc2ccc(C(C)(C#N)CCOc3ccccc3F)cc2[nH]c1=O (stereo not drawn) [Compound 278],1,
,,,,1260,1580,CCc1cc2ccc(C(C)(C#N)CCOc3ccc4c(c3)OCO4)cc2[nH]c1=O (stereo not drawn) [Compound 279],1,
,,,,100,251,CCc1cc2ccc(C(C)(C#N)Cc3cc(OC)cc(OC)c3)cc2[nH]c1=O (stereo not drawn) [Compound 332],0.1,

Structure (SMILES),IC50 (HCT116 cells [2]) [nM],IC50 (PC-3 cells) [nM],PC3 antiproliferative activity pIC50 (PC-3 cells),HCT116 antiproliferative activity pIC50 (HCT116 cells [2]; HCT116 cells),IC50 (HCT116 cells [2]; Alamar Blue) [nM],IC50 (PC-3 cells; Alamar Blue) [nM],minimal effective concentration (HCT116 cells [1]) [µM],"Mitotic arrest HCT116 LAD (HCT116 cells [1]; HCT116 cells, the values are: pLAD (−log M lowest active dose))"
CCc1cc2ccc(C(C)(C#N)Cc3cc4c(cc3Cl)OCO4)cc2[nH]c1=O (stereo not drawn) [Compound 91],501,398,,,,,0.1,
